Laboratory results reported in patent publication US20250073202A1, “METHODS TO TREAT RENAL DISORDERS USING CALCIUM CHANNEL INHIBITORS” (The Trustees of Indiana University, priority 2018, published 2025).
“Also recorded” adds a separate entry of the source.

Columns and labels:
[1] = tested on: renal ischemia reperfusion injury; assay: Bilateral renal ischemia/reperfusion (I/R) injury in rats, 24 hours after reperfusion (Study II); format: in vivo, rat
Method: All studies used male Sprague-Dawley rats (250-300 g) that were purchased from Envigo (Indianapolis, IN). Rats were anesthetized with a cocktail of ketamine (100 mg·kg^−1, KetoVed, Vedco Inc, St. Joseph, MO) and xylazine (50 mg·kg^−1, AnaSed, Lloyd Inc, Shenandoah IA). Rats were placed on a heated surgical table to maintain body temperature. A midline incision and either unilateral (left) or bilateral renal ischemia (as indicated in Results) was induced by applying micro-aneurism clamps on the renal pedicles for a period of 40 min. Re-establishment of perfusion was verified by visual examination following removal of the clamps. Rats were provided post-operative analgesia using buprenorphine-SR (1 mg·kg^−1).
Rats were allowed to recover for various periods of time as described in the Results. In Study I, lymphocytes were studied in vitro after recovery for either 2 or 7 days following I/R or sham surgery for evaluation of function in vitro or for FACS analysis. In Study II, the effect of SOCE on kidney injury was studied with the inhibitor YM58483/BPT2 (N-[4-[3,5-Bis(trifluoromethyl)-1H-pyrazol-1-yl]phenyl]-4-methyl-1,2,3-thiadiazole-5-carboxamide; Tocris/Bio-Techne Minneapolis, MN). Rats were pretreated p.o. 2-3 hours prior to surgery with YM58483.BPT2 (1 mg·kg^−1) in sugar-free chocolate pudding following dilution in 100% EtOH, at, a dose previously shown to affect T cell activation in rats. In some experiments, rats were also treated with the IL17Rc (150 ng/day i.p; R&D Systems). In addition, one experiment utilized a model of rhabdomyolysis, induced by injection of 50% glycerol (10 ml/kg) into the hindlimb muscle of rats following 16 hours of water restriction.
To measure creatinine, tail blood was collected in heparin containing tubes and centrifuged to collect plasma. Plasma creatinine was measured using a Pointe Scientific Analyzer and Creatinine Assay reagents using methods outlined by the manufacturer (Pointe Scientific, Canton MI). Urine was collected for 24 hours by placing rats in metabolic cages and urine volume was determined gravimetrically. Urine creatinine was measured using a colorimetric assay adopted for microplate readers. Creatinine clearance was measured using UCr*V/PCr. […]
Freshly harvested kidneys were minced and digested in liberase (2 μg/ml. Roche, Indianapolis IN) for 15 min at 37° C. using Gentle MACs (Miltenyli, San Diego, CA). The digested tissue was filtered through a 100-μm mesh and washed with RPMI containing 10% fetal bovine serum (Invitrogen). Mononuclear cells were isolated using Percol (Sigma) density gradient centrifugation.
(§1) To evaluate protein expression of IL17 or Orai1, Orai2 or Orai3, cells were restimulated with PMA and ionomycin for 6 hours in the presence of monensin (Golgistop, 1 μg·ml, BD Biosciences) permeabilized with saponin ([…]) and stained with relevant antibody. Cells were scanned using flow cytometry (FACSCalibur, BD Biosciences, San Jose, CA) and scans were analyzed using Flowjo software (Tree Star, Ashland, OR).
The effect of SOCE on early ischemic kidney injury was studied with the inhibitor YM58483/BPT2 (N-[4-[3,5-Bis(trifluoromethyl)-1 H-pyrazol-1-yl]phenyl]-4-methyl-1,2,3-thiadiazole-5-carboxamide; Tocris/Bio-Techne Minneapolis, MN). Rats were pretreated 2-3 hours prior to surgery, p.o. in sugar-free chocolate pudding following dilution in 100% EtOH, at 1 mg·kg^−1, a dose previously shown affect T cell activation in rats. To evaluate if SOCE influences Th17 cells in AKI, rats were fed YM58483/BPT2 approximately 2 hours prior to […] and reperfusion. […] YM58483/2BPT2 also attenuated the infiltration of total CD4+ and CD8+ T-cells, B-cells, and dendritic cells following I/R (FIGS. 3C, 3D, 3E, and 3F).

AKI-primed CD4+ cells [2] = assay: In vitro stimulation of AKI-primed kidney CD4+ cells with Ang II and elevated Na+, IL17 response; format: cell-based, rat; conditions: inhibitor 10 μM; Ang II 10^-7 M and 170 mM Na+; 12-14 hours; cells 7 days post I/R
Method: Total RNA was obtained from kidney using Trizol and the Zymogen RNA extraction kit and cDNA was prepared using MMLV enzyme (Invitrogen, Carlsburg, CA). Quantitative real time PCR (qPCR) using gene specific primers was performed using ABI 7500 (Applied Biosystems, Foster City, CA). mRNA values were calculated using 2^−ΔΔCt. Specific primers sequences for IL-6 (catalog #Rn01410330_m1), Kim-1 (#Rn00597703_m1) and IL17 (Rn01757168_m1) were purchased from ThermoFisher (Waltham, MA).
as §1
CD4+T cells were isolated using the MACS Pan-T cell microbead separation kit (Miltenyl, Glabach, Germany). T cells were stimulated with plate bound anti-CD3 (precoated with 2 μg/mL) and soluble anti-CD28 (1 μg/mL). Cells (2.5×10^5 in 0.25 ml) were incubated 12-14 hours at 37° C. in RPMI medium supplemented with 10% FBS (Invitrogen) in a 48-well plate. Cells were challenged with Ang II (Sigma, 10^−7M) and raising the extracellular Na+ from 140 mM to 170 mM, using a 1 M NaCl solution. Calcium channel inhibitors 2ABP (10 μM, Sigma) AnCoA4 (10 μM, Millipore, Burlington, MA) and YM58483/BTP2 (10 μM) were included to evaluate effects on IL-17.

AKI-primed CD4+ cells [3] = assay: Fura-2 imaging of intracellular Ca2+ responses in AKI-primed CD4+ cells; format: cell-based, rat; conditions: superfusate with Ang II and elevated Na+; to levels similar to sham
Method: To assess Ca^2+ responses, fura2 imaging was performed. Briefly, isolated CD4+ T cells were loaded with fura-2AM (2.5 μM, Sigma, St. Louis, MO) for 45 min, washed, placed on poly-lysine (Sigma) coated coverslips and placed in a superfusion chamber with physiological salt solution (PSS) containing 2 mM Ca^2+. The chamber was mounted on an inverted epifluorescence microscope and signal measured with alternating excitation at 340 and 380 nm and emission at 510 nm using the InCa^2+-imaging system (Intracellular Imaging Systems, Cincinnati, OH). Data were acquired at 1.5 Hz and representative tracings were smoothed to the 10 nearest neighbor points using GraphPad Prism. For analysis, an increase in signal intensity of >1 standard deviation from baseline was considered a positive response. Frequency of responding cells was determined from an average 53±19 cells for each animal.

[4] = 24 hours following I/R, listed as YM58483/2BPT2
[5] = 24 hours following I/R, listed as YM58483/BPT
[6] = 24 hours following ischemia reperfusion, mean ± S.E.

Cc1nnsc1C(=O)Nc1ccc(-n2nc(C(F)(F)F)cc2C(F)(F)F)cc1 [YM58483/BPT2, N-[4-[3,5-Bis(trifluoromethyl)-1H-pyrazol-1-yl]phenyl]-4-methyl-1,2,3-thiadiazole-5-carboxamide]
mRNA expression of kidney injury marker-1 (Kim-1) ([1]; 24 hours after reperfusion, 1 mg/kg p.o. pretreatment): significantly attenuated
level of renal injury as plasma creatinine (vs vehicle) ([1]; 24 hours after reperfusion, YM58483 1 mg/kg p.o. 2-3 hours prior to surgery): significantly attenuated; also recorded: significantly reduced
CD8+ cells in kidney (vs vehicle) ([1]; 24 hours following I/R): did not significantly effect
Th1 cells post-ischemia ([1]; 24 hours following I/R): did not significantly influence
Th2 cells post-ischemia ([1]; 24 hours following I/R): did not significantly influence
infiltration of B-cells in kidney ([1]; 24 hours following I/R): attenuated
infiltration of dendritic cells in kidney ([1]; 24 hours following I/R): attenuated
kidney CD4+/IL17+ cells (vs vehicle) ([1]; 24 hours following I/R): reduction was observed
reduction of total IL17 expressing cells relative to vehicle ([1]; 24 hours following I/R, 1 mg/kg p.o. pretreatment): ~78%
infiltration of total CD4+ T-cells in kidney (vs vehicle) ([1]; 24 hours following I/R, listed as YM58483/2-BPT): attenuated
CD8+ cells in kidney (vs vehicle) [1, 4]: attenuated
infiltration of total CD4+ T-cells in kidney (vs vehicle) [1, 4]: attenuated
infiltration of total CD4+ T-cells in kidney (vs vehicle) [1, 5]: significantly reduced
kidney CD4+/IL17+ cells (vs vehicle) [1, 5]: significantly reduced
CD4+ renal lymphocyte content [1, 6]: 26156 ± 4365 cells/gram
CD4+/IL-17+ cells [1, 6]: 2020 ± 731 cells/gram
CD8+ cells renal lymphocyte content [1, 6]: 8410 ± 1386 cells/gram
CD8+IL-17+ cells [1, 6]: 127 ± 23 cells/gram
Serum Creatinine [1, 6]: 3.7 ± 0.6 mg/dL
Total IL-17+ cells [1, 6]: 9334 ± 4293 cells/gram
increase in IL17+ cells (IL17 protein, FACS) (AKI-primed CD4+ cells [2]): completely blocked
increase of IL17 mRNA (AKI-primed CD4+ cells [2]): completely blocked
percentage of Ca2+-responding cells (AKI-primed CD4+ cells [3]): significantly attenuated
